Laboratory results reported in paper PMC7220906, “Target-responsive vasoactive probes for ultrasensitive molecular imaging” (Nature Communications, 2020).
Like-named read-outs stand apart in the source and are kept apart here. Residues, ends and D or L forms follow the SMILES beside them. *: point of attachment. Biotin = O=C1N[C@H]2[C@H](CS[C@H]2CCCCC(=O)*)N1; X2 = O=C(CCN1C(=O)CC(*)C1=O)NCCc1ccc(O)c(O)c1; X1 = C[C@@H]1NC(=O)N[C@@H]1CCCCCC(=O)*

Legend:
streptavidin (SA) = test system: streptavidin (SA); set-up: method as in 2 sources, ref 21 = [21]; PMID 9601024; doi:10.1021/bi9803123; 21. Klumb LA Chu V Stayton PS Energetic roles of hydrogen bonds at the ureido oxygen binding pocket in the streptavidin−biotin complex Biochemistry 1998 37 7657 7663 10.1021/bi9803123 9601024 ||| ref 22 = [22]; PMID 7041971; doi:10.1021/bi00534a024; 22. Hofmann K Titus G Montibeller JA Finn FM Avidin binding of carboxyl-substituted biotin and analogues Biochemistry 1982 21 978 984 10.1021/bi00534a024 7041971; conditions: cited from earlier work
PACAP receptor PAC1 = target: T1, PACAP receptor PAC1 (Homo sapiens, UniProt P41586); assay: PAC1 luminescence (GloSensor cAMP) assay of PACAP derivatives; assay type: cell-based
T1 construct: expressed in transfected cells; host or cells: CHO K1 cells stably transduced by lentivirus with PAC1 and the Glo22F cAMP luciferase
T1 sequence (P41586 21-468): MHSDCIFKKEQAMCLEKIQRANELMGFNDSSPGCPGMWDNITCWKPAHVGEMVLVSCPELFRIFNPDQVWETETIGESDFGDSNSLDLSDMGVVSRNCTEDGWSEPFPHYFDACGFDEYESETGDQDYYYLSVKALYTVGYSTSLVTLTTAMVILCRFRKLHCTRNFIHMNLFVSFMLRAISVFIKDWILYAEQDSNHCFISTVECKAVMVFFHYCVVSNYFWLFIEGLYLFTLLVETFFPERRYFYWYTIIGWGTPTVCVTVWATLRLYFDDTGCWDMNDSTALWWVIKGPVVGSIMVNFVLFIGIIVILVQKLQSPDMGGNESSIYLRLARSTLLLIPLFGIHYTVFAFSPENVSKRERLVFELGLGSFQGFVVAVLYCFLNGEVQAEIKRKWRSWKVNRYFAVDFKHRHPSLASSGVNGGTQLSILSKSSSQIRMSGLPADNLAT
Method: (Promega, Madison, WI). We generated a CHO K1 cell line expressing the required cAMP-dependent luciferase and PAC1 receptor. 24 h before the assay, 2500 cells per well were seeded in 100 µl F10 with 10% FBS in white opaque clear-bottom 96-well plates (Costar, Coppell, TX). […] Luminescence was measured for 30 min using a microtiter plate reader and evaluated after the signal reached a plateau (15 min).
Biotin (BT) and desthiobiotin (dBT) were incorporated as lysine sidechain-derivatized monomers in the synthesis; polyethylene glycol (PEG)-linked BT was incorporated as a BT-functionalized glutamine monomer spaced using a linker of four PEG units. […] Further BT-AVATar activation studies were performed using biotinylated bovine serum albumin (BSA, Sigma-Aldrich) containing 100 nM BT or biotinylated cells containing 150 nM BT (preparation see below) as analytes.
Addition of the maleimido functional group was achieved by reacting DA with N-succinimidyl 3-maleimidopropionate in anhydrous dimethylformamide and further purification using HPLC. The resulting functionalized neurotransmitter, DA-Mal, was further characterized by standard methods (Supplementary Methods and Supplementary Figs. 8 and 9). […] Dopamine sensitivity of the DA-AVATar was examined using freshly prepared DA (Sigma-Aldrich) stocks in PBS pH 7.4.

[1] = CHO K1 cells expressing PAC1 and cAMP-dependent luciferase, no streptavidin, mean ± SD of duplicates, read-out: EC50 for PAC1 receptor activation in the absence of SA

## O=C(O)CCCC[C@@H]1SC[C@@H]2NC(=O)N[C@@H]21 [biotin]
Streptavidin (SA)
  characteristic dissociation time of SA from biotin: ~ 7 h

## CC[C@H](C)[C@H](NC(=O)CNC(=O)[C@H](CC(=O)O)NC(=O)[C@H](CO)NC(=O)[C@@H](N)Cc1c[nH]cn1)C(=O)N[C@@H](Cc1ccccc1)C(=O)N[C@H](C(=O)N[C@@H](CC(=O)O)C(=O)N[C@@H](CO)C(=O)N[C@@H](CCCCNC(=O)CCCCC[C@H]1NC(=O)N[C@H]1C)C(=O)N[C@@H](CO)C(=O)N[C@@H](CCCNC(=N)N)C(=O)N[C@@H](Cc1ccc(O)cc1)C(=O)N[C@@H](CCCNC(=N)N)C(=O)N[C@@H](CCCCN)C(=O)N[C@@H](CCC(N)=O)C(=O)N[C@@H](CCSC)C(=O)N[C@@H](C)C(=O)N[C@H](C(=O)N[C@@H](CCCCNC(=O)CCCCC[C@H]1NC(=O)N[C@H]1C)C(=O)N[C@@H](CCCCN)C(=O)N[C@@H](Cc1ccc(O)cc1)C(=O)N[C@@H](CC(C)C)C(=O)N[C@@H](C)C(=O)N[C@@H](C)C(=O)N[C@H](C(=O)N[C@@H](CC(C)C)C(=O)NCC(=O)N[C@@H](CCCCN)C(=O)N[C@@H](CCCNC(=N)N)C(=O)N[C@@H](Cc1ccc(O)cc1)C(=O)N[C@@H](CCCCNC(=O)CCCCC[C@H]1NC(=O)N[C@H]1C)C(=O)N[C@@H](CCC(N)=O)C(=O)N[C@@H](CCCNC(=N)N)C(=O)N[C@H](C(=O)N[C@@H](CCCCN)C(=O)N[C@@H](CC(N)=O)C(=O)N[C@@H](CCCCN)C(N)=O)C(C)C)C(C)C)C(C)C)[C@@H](C)O [PACAP-10,20,32-dBT] (H-HSDGIFTDSK(X1)SRYRKQMAVK(X1)KYLAAVLGKRYK(X1)QRVKNK-NH2)
PACAP receptor PAC1; [1]
  EC50: 0.13 ± 0.002 nM

## C[C@@H]1NC(=O)N[C@@H]1CCCCCC(=O)O [desthiobiotin]
Streptavidin (SA)
  affinity for SA relative to biotin (lower): 10,000 fold

## CC[C@H](C)[C@H](NC(=O)CNC(=O)[C@H](CC(=O)O)NC(=O)[C@H](CO)NC(=O)[C@@H](N)Cc1c[nH]cn1)C(=O)N[C@@H](Cc1ccccc1)C(=O)N[C@H](C(=O)N[C@@H](CC(=O)O)C(=O)N[C@@H](CO)C(=O)N[C@@H](CSC1CC(=O)N(CCC(=O)NCCc2ccc(O)c(O)c2)C1=O)C(=O)N[C@@H](CO)C(=O)N[C@@H](CCCNC(=N)N)C(=O)N[C@@H](Cc1ccc(O)cc1)C(=O)N[C@@H](CCCNC(=N)N)C(=O)N[C@@H](CCCCN)C(=O)N[C@@H](CCC(N)=O)C(=O)N[C@@H](CCSC)C(=O)N[C@@H](C)C(=O)N[C@H](C(=O)N[C@@H](CSC1CC(=O)N(CCC(=O)NCCc2ccc(O)c(O)c2)C1=O)C(=O)N[C@@H](CCCCN)C(=O)N[C@@H](Cc1ccc(O)cc1)C(=O)N[C@@H](CC(C)C)C(=O)N[C@@H](C)C(=O)N[C@@H](C)C(=O)N[C@H](C(=O)N[C@@H](CC(C)C)C(=O)NCC(=O)N[C@@H](CCCCN)C(=O)N[C@@H](CCCNC(=N)N)C(=O)N[C@@H](Cc1ccc(O)cc1)C(=O)N[C@@H](CCCCN)C(=O)N[C@@H](CCC(N)=O)C(=O)N[C@@H](CCCNC(=N)N)C(=O)N[C@H](C(=O)N[C@@H](CCCCN)C(=O)N[C@@H](CC(N)=O)C(=O)N[C@@H](CCCCN)C(N)=O)C(C)C)C(C)C)C(C)C)[C@@H](C)O (some centres unmarked) [PACAP-10,20-DA] (H-HSDGIFTDSC(X2)SRYRKQMAVC(X2)KYLAAVLGKRYKQRVKNK-NH2)
PACAP receptor PAC1; DA conjugate, no IgG, SD of duplicates, read-out: EC50 for PAC1 receptor activation
  EC50: 2.5 ± 0.6 nM

## CC[C@H](C)[C@H](NC(=O)CNC(=O)[C@H](CC(=O)O)NC(=O)[C@H](CO)NC(=O)[C@@H](N)Cc1c[nH]cn1)C(=O)N[C@@H](Cc1ccccc1)C(=O)N[C@H](C(=O)N[C@@H](CC(=O)O)C(=O)N[C@@H](CO)C(=O)N[C@@H](CCCCNC(=O)CCCC[C@@H]1SC[C@@H]2NC(=O)N[C@@H]21)C(=O)N[C@@H](CO)C(=O)N[C@@H](CCCNC(=N)N)C(=O)N[C@@H](Cc1ccc(O)cc1)C(=O)N[C@@H](CCCNC(=N)N)C(=O)N[C@@H](CCCCN)C(=O)N[C@@H](CCC(N)=O)C(=O)N[C@@H](CCSC)C(=O)N[C@@H](C)C(=O)N[C@H](C(=O)N[C@@H](CCCCNC(=O)CCCC[C@@H]1SC[C@@H]2NC(=O)N[C@@H]21)C(=O)N[C@@H](CCCCN)C(=O)N[C@@H](Cc1ccc(O)cc1)C(=O)N[C@@H](CC(C)C)C(=O)N[C@@H](C)C(=O)N[C@@H](C)C(=O)N[C@H](C(=O)N[C@@H](CC(C)C)C(=O)NCC(=O)N[C@@H](CCCCN)C(=O)N[C@@H](CCCNC(=N)N)C(=O)N[C@@H](Cc1ccc(O)cc1)C(=O)N[C@@H](CCCCN)C(=O)N[C@@H](CCC(N)=O)C(=O)N[C@@H](CCCNC(=N)N)C(=O)N[C@H](C(=O)N[C@@H](CCCCN)C(=O)N[C@@H](CC(N)=O)C(=O)N[C@@H](CCCCN)C(N)=O)C(C)C)C(C)C)C(C)C)[C@@H](C)O [PACAP-10,20-BT] (H-HSDGIFTDSK(Biotin)SRYRKQMAVK(Biotin)KYLAAVLGKRYKQRVKNK-NH2)
PACAP receptor PAC1; [1]
  EC50: 0.061 ± 0.007 nM
